From publication PMC9948168, “Vanillin-Based Indolin-2-one Derivative Bearing a Pyridyl Moiety as a Promising Anti-Breast Cancer Agent via Anti-Estrogenic Activity” (ACS Omega, 2023)

What was measured:
Assay in all cases: NCI-60 one-dose screening
Type in all cases: cell-based
786-0 = settings: Homo sapiens, 786-0, Renal Cancer, read-out: GI (%)
MCF7 = settings: Homo sapiens, MCF7, 10 μM; MCF7, Breast Cancer; read-out: GI (%)
A498 = settings: Homo sapiens, A498, Renal Cancer, read-out: GI (%)
NCI-H460 = settings: Homo sapiens, NCI-H460, Non-Small Cell Lung Cancer, read-out: GI (%)
U251 = settings: Homo sapiens, U-251, U251, CNS Cancer, read-out: GI (%)
COLO 205 = settings: Homo sapiens, COLO 205, Colon Cancer, read-out: GI (%)
SR = settings: Homo sapiens, Leukemias, read-out: GI (%)
OVCAR-3 = settings: Homo sapiens, OVCAR-3, 10 μM; OVCAR-3, Ovarian Cancer; read-out: GI (%)
CCRF-CEM = settings: Homo sapiens, Leukemias, read-out: GI (%)
HL-60(TB) = settings: Homo sapiens, Leukemias, read-out: GI (%)
ACHN = settings: Homo sapiens, Renal Cancer, read-out: GI (%)
KM12 = settings: Homo sapiens, KM12, Colon Cancer, read-out: GI (%)
EKVX = settings: Homo sapiens, Non-Small Cell Lung Cancer, read-out: GI (%)
OVCAR-4 = settings: Homo sapiens, OVCAR-4, 10 μM; OVCAR-4, Ovarian Cancer; read-out: GI (%)
NCI/ADR-RES = settings: Homo sapiens, Ovarian Cancer, read-out: GI (%)
MOLT-4 = settings: Homo sapiens, MOLT-4, Leukemias, read-out: GI (%)
SK-MEL-2 = settings: Homo sapiens, SK-MEL-2, Melanoma, read-out: GI (%)
SF-539 = settings: Homo sapiens, SF-539, CNS Cancer, read-out: GI (%)
NCI-H322M = settings: Homo sapiens, Non-Small Cell Lung Cancer, read-out: GI (%)
HT29 = settings: Homo sapiens, HT-29, HT29, Colon Cancer, read-out: GI (%)
OVCAR-8 = settings: Homo sapiens, OVCAR-8, Ovarian Cancer, read-out: GI (%)
A549/ATCC = settings: Homo sapiens, Non-Small Cell Lung Cancer, read-out: GI (%)
HCC-2998 = settings: Homo sapiens, HCC-2998, Colon Cancer, read-out: GI (%)
NCI-H23 = settings: Homo sapiens, NCI-H23, Non-Small Cell Lung Cancer, read-out: GI (%)
HCT-15 = settings: Homo sapiens, HCT-15, Colon Cancer, read-out: GI (%)
UO-31 = settings: Homo sapiens, UO-31, Renal Cancer, read-out: GI (%)
HS 578T = settings: Homo sapiens, Breast Cancer, read-out: GI (%)
SNB-19 = settings: Homo sapiens, SNB-19, CNS Cancer, read-out: GI (%)
OVCAR-5 = settings: Homo sapiens, OVCAR-5, Ovarian Cancer, read-out: GI (%)
SF-268 = settings: Homo sapiens, SF-268, CNS Cancer, read-out: GI (%)
PC-3 = settings: Homo sapiens, PC-3, Prostate Cancer, read-out: GI (%)
LOX IMVI = settings: Homo sapiens, Melanoma, read-out: GI (%)
MDA-MB-435 = settings: Homo sapiens, MDA-MB-435, Melanoma, read-out: GI (%)
RPMI-8226 = settings: Homo sapiens, RPMI-8226, Leukemias, read-out: GI (%)
TK-10 = settings: Homo sapiens, TK-10, Renal Cancer, read-out: GI (%)
HOP-92 = settings: Homo sapiens, HOP-92, Non-Small Cell Lung Cancer, read-out: GI (%)

COc1cc(/C=C2/C(=O)Nc3ccccc32)ccc1OCc1ccc(Cl)cc1 [6b]
inhibition at 10 µM (786-0): -6.18% | inhibition at 10 µM (MCF7): 30.5% | inhibition at 10 µM (A498): -15.1% | inhibition at 10 µM (NCI-H460): 58.9% | inhibition at 10 µM (U251): -7% | inhibition at 10 µM (COLO 205): -16.1% | inhibition at 10 µM (SR): 6.17% | inhibition at 10 µM (OVCAR-3): -5.51% | inhibition at 10 µM (CCRF-CEM): 5.07% | inhibition at 10 µM (HL-60(TB)): -13.4% | inhibition at 10 µM (ACHN): 7.31% | inhibition at 10 µM (KM12): 0.38% | inhibition at 10 µM (EKVX): 4.66% | inhibition at 10 µM (OVCAR-4): 0.89% | inhibition at 10 µM (NCI/ADR-RES): -0.22% | inhibition at 10 µM (MOLT-4): 6.07% | inhibition at 10 µM (SK-MEL-2): -5.45% | inhibition at 10 µM (SF-539): 1.99% | inhibition at 10 µM (NCI-H322M): 0.35% | inhibition at 10 µM (HT29): -8.68% | inhibition at 10 µM (OVCAR-8): -1.64% | inhibition at 10 µM (A549/ATCC): -7.18% | inhibition at 10 µM (HCC-2998): -23.5% | inhibition at 10 µM (NCI-H23): 6.66% | inhibition at 10 µM (HCT-15): 6.05% | inhibition at 10 µM (UO-31): 18.7% | inhibition at 10 µM (HS 578T): -4.77% | inhibition at 10 µM (SNB-19): 2.91% | inhibition at 10 µM (OVCAR-5): -0.58% | inhibition at 10 µM (SF-268): 1.43% | inhibition at 10 µM (PC-3): 5.22% | inhibition at 10 µM (LOX IMVI): 0.22% | inhibition at 10 µM (MDA-MB-435): -6.4% | inhibition at 10 µM (RPMI-8226): 2.49% | inhibition at 10 µM (TK-10): -35.9% | inhibition at 10 µM (HOP-92): -12.5%

COc1cc(C=C2C(=O)Nc3ccc(Cl)cc32)ccc1OCc1ccccn1 (mixture of isomers) [6j]
inhibition at 10 µM (786-0): -1.2% | inhibition at 10 µM (MCF7): 63% | inhibition at 10 µM (A498): 0.8% | inhibition at 10 µM (NCI-H460): -4.56% | inhibition at 10 µM (U251): 5.39% | inhibition at 10 µM (COLO 205): -10.1% | inhibition at 10 µM (SR): 11.5% | inhibition at 10 µM (OVCAR-3): 7.98% | inhibition at 10 µM (CCRF-CEM): 2.39% | inhibition at 10 µM (HL-60(TB)): 3.78% | inhibition at 10 µM (ACHN): 3.24% | inhibition at 10 µM (KM12): -0.52% | inhibition at 10 µM (EKVX): 27% | inhibition at 10 µM (OVCAR-4): 8.34% | inhibition at 10 µM (NCI/ADR-RES): 5.4% | inhibition at 10 µM (MOLT-4): 4.33% | inhibition at 10 µM (SK-MEL-2): -9.33% | inhibition at 10 µM (SF-539): 4.61% | inhibition at 10 µM (NCI-H322M): 2.99% | inhibition at 10 µM (HT29): -8.55% | inhibition at 10 µM (OVCAR-8): 3.83% | inhibition at 10 µM (A549/ATCC): -2.5% | inhibition at 10 µM (HCC-2998): -6.73% | inhibition at 10 µM (NCI-H23): 9.09% | inhibition at 10 µM (HCT-15): 22.8% | inhibition at 10 µM (UO-31): 29.6% | inhibition at 10 µM (HS 578T): -2.66% | inhibition at 10 µM (SNB-19): 8.13% | inhibition at 10 µM (OVCAR-5): 0.34% | inhibition at 10 µM (SF-268): 1.24% | inhibition at 10 µM (PC-3): 11.7% | inhibition at 10 µM (LOX IMVI): 14.8% | inhibition at 10 µM (MDA-MB-435): -3.49% | inhibition at 10 µM (RPMI-8226): 0.53% | inhibition at 10 µM (TK-10): -46.6% | inhibition at 10 µM (HOP-92): -0.22%
